# Laboratory results: ChEMBL document CHEMBL1135316, “Parallel solution- and solid-phase synthesis of spirohydantoin derivatives as neurokinin-1 receptor ligands” (Bioorg Med Chem Lett, 2002)
# Biological target: Substance-P receptor (Homo sapiens, UniProt P25103)
# Experiment: Affinity for human Tachykinin receptor 1 expressed in CHO cells
# Assay type: cell-based
# Substance-P receptor, sequence (P25103 whole entry): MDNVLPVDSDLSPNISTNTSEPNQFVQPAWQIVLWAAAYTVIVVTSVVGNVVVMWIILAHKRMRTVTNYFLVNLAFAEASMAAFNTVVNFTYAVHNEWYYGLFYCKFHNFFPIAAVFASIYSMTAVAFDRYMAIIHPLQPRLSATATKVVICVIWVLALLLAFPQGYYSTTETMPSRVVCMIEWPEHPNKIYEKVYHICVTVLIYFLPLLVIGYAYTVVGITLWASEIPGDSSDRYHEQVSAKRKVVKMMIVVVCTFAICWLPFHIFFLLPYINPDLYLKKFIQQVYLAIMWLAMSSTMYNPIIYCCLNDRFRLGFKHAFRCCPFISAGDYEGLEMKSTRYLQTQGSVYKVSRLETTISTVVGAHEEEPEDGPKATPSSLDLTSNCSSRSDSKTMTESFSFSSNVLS
row,Ki,SMILES
1,0.457 µM,CN1C(=O)N(Cc2cc(C(F)(F)F)cc(C(F)(F)F)c2)C2(CCN(C(=O)c3cccc4ccccc34)CC2)C1=O
2,3.72 µM,CN1C(=O)N(Cc2cc(C(F)(F)F)cc(C(F)(F)F)c2)C2(CCN(C(=O)CN3CCC(Cc4ccccc4)CC3)CC2)C1=O
3,0.138 µM,O=C(c1cc(C(F)(F)F)cc(C(F)(F)F)c1)N1CCC2(CC1)NC(=O)N(Cc1cccc(-c3ccccc3)c1)C2=O
4,0.646 µM,CN1C(=O)N(Cc2cc(C(F)(F)F)cc(C(F)(F)F)c2)C2(CCN(C(=O)c3c(Cl)cccc3Cl)CC2)C1=O
5,0.0741 µM,O=C1NC2(CCN(S(=O)(=O)CCc3cccc4ccccc34)CC2)C(=O)N1Cc1cc(C(F)(F)F)cc(C(F)(F)F)c1
6,0.132 µM,CSc1ccc(N2C(=O)NC3(CCN(C(=O)c4cc(C(F)(F)F)cc(C(F)(F)F)c4)CC3)C2=O)cc1
7,0.575 µM,O=C(c1cc(C(F)(F)F)cc(C(F)(F)F)c1)N1CCC2(CC1)NC(=O)N(CCc1c[nH]c3ccccc13)C2=O
8,0.107 µM,N#Cc1cccc(CN2CCC3(CC2)NC(=O)N(Cc2cc(C(F)(F)F)cc(C(F)(F)F)c2)C3=O)c1
9,0.245 µM,O=C(c1cc(C(F)(F)F)cc(C(F)(F)F)c1)N1CCC2(CC1)NC(=O)N(Cc1ccc3c(c1)OCO3)C2=O
10,0.339 µM,O=C(c1cccc2ccccc12)N1CCC2(CC1)NC(=O)N(c1cc(C(F)(F)F)cc(C(F)(F)F)c1)C2=O
11,0.324 µM,Cc1cc(C)c(C(=O)N2CCC3(CC2)NC(=O)N(c2cc(C(F)(F)F)cc(C(F)(F)F)c2)C3=O)c(C)c1
12,0.0457 µM,Cc1cccc(NC(=O)N2CCC3(CC2)NC(=O)N(Cc2cc(C(F)(F)F)cc(C(F)(F)F)c2)C3=O)c1
